Laboratory results from patent US11207461B2, “Drug delivery system and method for controlled and continuous delivery of drugs into the brain by bypassing the blood brain barrier” (priority 2015, dated 2021).

Legend:
[1] = rabbit
Text: The device was surgically placed in a rabbit in the maxillary sinus region by removing the bone overlying the respiratory mucosa. The tip of the device was placed beneath the maxillary sinus lining mucosa in contact with the connective tissue side of the mucosa. […] FIG. 15 refers to the comparative brain values of dopamine using High Performance Liquid Chromatography, between the control and the rabbit in which dopamine was delivered in vivo in a continuous and controlled manner under the maxillary sinus mucosa using the drug delivery system. […] The drug delivery was stopped at the twentieth minute. […] FIG. 16 refers to blood values of dopamine in the rabbit after in vivo delivery of dopamine under the maxillary sinus mucosa using the device.

[2] = rabbit; blood samples before and at 10, 20 and 30 minutes after start of drug delivery; FIG. 18
Description: The device was placed into the maxillary sinus of a rabbit by perforating the maxillary sinus mucosa from the connective tissue side and placing the implant tip into the sinus cavity and above the epithelial layer. […] Whole body perfusion was done using a peristaltic pump with warm physiological saline for 20 minutes at a controlled rate. The perfused brain was then resected at the end one hour from the start of the procedure. Brain samples from different parts of the brain was analyzed using High Performance Liquid Chromatography. […] During the procedure, a blood sample was collected before drug delivery. Three blood samples were then collected at intervals of 10, 20 and 30 minutes respectively following start of drug delivery. The samples were analyzed using High Performance Liquid Chromatography.

Row | blood value of dopamine (HPLC) after drug delivery was stopped ([1]; blood sample at 30 minutes, delivery stopped at the twentieth minute, FIG. 16) | blood values of dopamine (HPLC) during drug delivery ([1]; blood samples at 10 and 20 minutes after start of drug delivery, versus sample before delivery, FIG. 16) | SMILES | drug in peripheral circulation during drug delivery ([1]; dopamine infused under maxillary sinus mucosa, during the 20 minute delivery) | brain concentration of dopamine (HPLC) compared with the normal ([1]; infused under maxillary sinus mucosa for twenty minutes at 1 milliliter per hour, perfused brain resected at one hour, samples from different parts of the brain, FIG. 15) | blood values of lignocaine (HPLC), drug in peripheral circulation [2]
1 | peaked again | dipped | NCCc1ccc(O)c(O)c1 [Dopamine] | no increase of the drug in peripheral circulation | increased concentration of dopamine in all parts of the brain except diencephalon | 
2 |  |  | CCN(CC)CC(=O)Nc1c(C)cccc1C [Lignocaine] |  |  | no drug in the peripheral circulation
